By melting point is commonly meant the temperature, or range, at which the solid turns liquid.

SMILES strings stand for the structures.

`Cc1n[nH]c(C)c1CCBr` returned a melting point of 118 to 120 °C. In the case of `CCCCCCCOCC`, the melting point is -68.3 °C.

Compound `Cc1c(C(=O)O)sc2c1CCCC2` came in with a melting point of 218 °C. For the compound `CC1=C(C(=O)OCc2ccccc2)C(c2ccc3c(c2)OCO3)NC(=O)N1` (centres undefined), the melting point was 158 to 160 °C.

On to `Cc1cc(C)c(C(=O)O)cc1C`, for which the melting point turned out to be 152 °C.

Consider `Cc1nc(N)nc2c1c(=O)n(-c1ccccc1)c1ccccc21`, for which the melting point stood at 233 °C. On to `O=[N+]([O-])c1ccc(-c2nnc3n2NC(c2ccc([N+](=O)[O-])cc2)S3)cc1` (centres undefined), for which the melting point came out at 229 °C. For `C#CCCCCCCCCCCC`, the melting point was -5 °C. As for `Cc1nc(CC(=O)O)cs1`, the melting point was in the range of 124 to 125 °C.

Turning to `CCCCCC(=O)OC1(C(C)=O)CCC2C3CCC4=CC(=O)CCC4C3CCC21C` (centres undefined), the melting point amounted to 124 °C.

For `COc1ccc2c(c1)c(CC(=O)OCC(=O)O)c(C)n2C(=O)c1ccc(Cl)cc1`, the melting point was 150 °C. Take `O=C(OC(=O)C(c1ccccc1)c1ccccc1)C(c1ccccc1)c1ccccc1`: the melting point was found to be 98 °C. Consider `O=C(C1=NOC2C(=O)N(c3cccc([N+](=O)[O-])c3)C(=O)C12)c1ccccc1` (centres undefined), for which the melting point was determined as 173 °C. `C[Si](C)(C)O[Si](C)(C)O[Si](C)(C)O[Si](C)(C)O[Si](C)(C)C` returned a melting point of -80 °C.

With `CC1CC2C(C(O)CC3(C)C2CCC3(O)C(=O)CO)C2(C)C=CC(=O)C=C12` (centres undefined), the melting point was 233 °C. The same measure for `CCOC(=O)c1[nH]c(C)c(CO)c1C`: 220 to 222 °C; for `CC(=O)OC1CC2C(C)C(=O)C3(C(OC(C)=O)CC4C(C)(C)CCC(OC(C)=O)C4(C=O)C13)C2OC(C)=O` (centres undefined): 250 to 252 °C. In turn, `O=C(OCCOc1cc(OCCOC(=O)c2ccccc2)c([N+](=O)[O-])cc1[N+](=O)[O-])c1ccccc1` gave a melting point of 165 °C. The same measure for `Cc1cc(C)c(C[S+]([O-])Cc2c(C)cc(C)cc2C)c(C)c1`: 210 °C.

As for `CCN(CC)C(=O)C1CN2CCc3cc(OC)c(OC)cc3C2CC1OC(C)=O` (centres undefined), the melting point was 131 °C. As for `CCCN(C(C)=O)c1ccccc1`, the figure is 49 °C. As for `CCCNCCC`, the figure is -63 °C; as for `C[C@]12CCC(=O)C[C@@H]1CC[C@@H]1[C@@H]2CC[C@]2(C)C(=O)CC[C@@]12O`, 225 to 227 °C; as for `OCCSCCSCCO`, 64 to 68 °C. The compound `C(=C1c2ccccc2C2C1OC1/C(=C\c3ccccc3)c3ccccc3C12)c1ccccc1` (centres undefined) registered a melting point of 214 to 215 °C. The same measure for `O=C1c2ccccc2C(=O)c2cc(CO)ccc21`: 192 to 197 °C; for `CN1CCN=C1C(C1=NCCN1C)C1=NCCN1C`: 241 to 243 °C; for `CC(C)(C)OC(=O)N1CCN(Cc2cccc([N+](=O)[O-])c2)CC1`: 84 to 85 °C.

`CC(=O)c1ccc(OCc2ccc(F)cc2)cc1`: the melting point was 79 to 80 °C. `CC(=O)Nc1ccccc1C(F)(F)F` displayed a melting point of 96 °C. Compound `N#Cc1cccc(N2CCCC2)n1` returned a melting point of 73 to 74 °C. With `Cc1ccncc1/C=N/N(C)C`, the melting point was 50 °C. As for `Cc1csc2sc(C=O)c(C)c12`, the figure is 147 to 149 °C; as for `OCC1CCCN2CCCCC12` (centres undefined), 70 °C.

In the case of `Cc1nnc2n1-c1sc(Br)cc1C(c1ccccc1Cl)=NC2`, the melting point turned out to be 213 °C.

In turn, `Cc1nc(-c2ccccc2)c(CO)s1` gave a melting point of 143 to 147 °C.

For `CC(C)(C)OC(=O)Nc1ccco1`, the melting point was 98 to 100 °C.

As for `CCOC(=O)CCCOc1ccc(Cl)cc1C`, the melting point is -1 °C. The same measure for `CCOC(=O)c1ccc(N/C=C2\C(=O)C3(C)CCC2C3(C)C)cc1` (centres undefined): 105 °C; for `CCOC(=O)c1cc2c(=O)oc3ccccc3c2n(Cc2ccccc2)c1=O`: 212 °C; for `FC(F)(F)C(F)(F)C(F)(F)C(F)(F)N(C(F)(F)C(F)(F)C(F)(F)C(F)(F)F)C(F)(F)C(F)(F)C(F)(F)C(F)(F)F`: -50 °C. As for `COC(=O)C1(S(=O)(=O)c2ccc(C)cc2)CC1`, the figure is 97.2 °C; as for `O=[N+]([O-])c1cccc(NN=Cc2ccccc2)c1`, 196 °C. The same measure for `O=C(O)c1ccc(C(F)(F)F)cc1C(=O)O`: 151 °C; for `Cn1c2ccccc2c2cc([N+](=O)[O-])ccc21`: 172 to 174 °C. Compound `O=[N+]([O-])c1ccc(O)c2ncccc12` returned a melting point of 180 °C. In turn, `CC(=O)NC1C(Oc2c[nH]c3ccc(Br)c(Cl)c23)OC(CO)C(O)C1O` (centres undefined) returned a melting point of 246 to 248 °C.

Take `CC(C)NCCCC1(C(N)=O)c2ccccc2-c2ccccc21`: the melting point came out at 94.5 °C. As for `CCCCc1nc(Cl)c(CO)n1Cc1ccc(-c2ccccc2-c2nn[nH]n2)cc1`, the figure is 184 °C; as for `COc1ccc(C(O)(c2cncnc2)C2CC2)cc1` (centres undefined), 110 °C; as for `CC12CCC(C(Cl)C1=O)C2(C)C` (centres undefined), 106 °C. The compound `CC(C)NC(=S)NC(C)C` displayed a melting point of 144 °C. Take `C=C(C)CCCCCCCCCCCCCCC`: the melting point was found to be 9 °C.

Turning to `N#Cc1cccc(N2CCCCC2)c1`, the melting point lay in the range of 133 to 136 °C. As for `CC(O)CNCCN` (centres undefined), the melting point is -50 °C. The same measure for `Cc1ccc(S(=O)(=O)n2ccnc2)cc1`: 75 to 80 °C; for `N#C/C(=N\Nc1ccc(O)cc1)c1nc2ccccc2[nH]1`: 255 °C; for `CS(=O)CCC(N)C(=O)O` (racemic): 232 to 234 °C.

In turn, `O=C(CBr)c1ccnc(Cl)c1` yielded a melting point of 55 to 56.5 °C.

The compound `COc1cc(C(=O)NCc2ccc(OCCN(C)C)cc2)cc(OC)c1OC` returned a melting point of 189 °C.

`O=C(CCCl)N1CCc2ccccc21` registered a melting point of 83 to 85 °C. As for `COC(=O)c1ccc(CC(C#N)(Cc2ccc(C(=O)OC)cc2)c2ccc(CC(C)C)cc2)cc1`, the figure is 115 °C; as for `CCCCOC(=O)c1ccccc1C(=O)OCCCC`, -35 °C; as for `C[C@@H](O)c1ccncc1`, 68 to 70 °C. In turn, `Brc1ccc(N(c2ccc(Br)cc2)c2ccc(Br)cc2)cc1` had a melting point of 142 °C. In the case of `Cc1cc(C)c(NC(=O)C(Br)C(C)(C)C)c(C)c1` (centres undefined), the melting point lay within 185 to 188 °C.

For the compound `COc1ccc(SC)cc1`, the melting point is 22 to 23 °C. Take `O=[N+]([O-])c1cccnc1Oc1ccc(Cl)cc1`: the melting point lay in the range of 89 to 90 °C. Compound `S=c1[nH]ccn1-c1ccccc1` yielded a melting point of 177 to 179 °C. As for `CC(=O)c1cc(C(C)=O)c(O)cc1O`, the figure is 180 °C; as for `OCC1OC1c1ccccc1` (centres undefined), 51 to 53 °C; as for `COc1cccc(C=Cc2cc(C=Cc3cccc(OC)c3O)c([N+](=O)[O-])cc2[N+](=O)[O-])c1O`, 254 °C.

As for `CCO[Si](CCCN)(OCC)OCC`, the melting point was -70 °C. In turn, `Nc1c(Cl)c(Cl)nc(C(=O)O)c1Cl` gave a melting point of 218 °C.

Regarding `CCCCCCCC(=O)OCCCC`, the melting point is -42.9 °C. `Cc1ccc(Cc2c(N)nn3c(C)cc(C)nc23)cc1` showed a melting point of 178 to 179 °C. The same measure for `O=[N+]([O-])C=Cc1cc(Cl)ccc1O`: 148 to 154 °C. `Nc1c(Cl)cc(F)cc1Cl` came in with a melting point of 56 °C. Compound `CN(N=O)C(N)=O` returned a melting point of 121 °C. Consider `CC(=O)N[C@@H](C)C(=O)N[C@@H](C)C(=O)N[C@@H](C)C(=O)O`, for which the melting point came to 248 °C. The same measure for `Cc1cc(N)ccc1N`: 64 °C; for `CN1CCN(Cc2ccccc2CO)CC1`: 62 to 64 °C; for `CC1CCC(C)(C(=O)COC(=O)c2ccccc2)C1(C)C` (centres undefined): 82 °C. As for `CC(=O)OC1=C(C)C2(OC(C)=O)CCC1C1C(=O)NC(=O)C12` (centres undefined), the figure is 161 to 162 °C; as for `C=C(O[Si](C)(C)C)c1c(C)c(C)c(C)c(C)c1C`, 41 °C; as for `CC(=O)c1nn(-c2cccc(C)c2C)c(=N)s1`, 170 °C.

As to `CC(C)Oc1cccc(NC(=O)c2ccccc2C(F)(F)F)c1`, the melting point came to 105 °C.

Compound `Cn1c(/C(C#N)=N/Nc2ccccc2Cl)nc2ccccc21` yielded a melting point of 193 °C. Compound `Clc1cc2c(cc1Cl)Oc1ccccc1O2` gave a melting point of 163 °C. On to `CCOC(=O)c1nn(-c2ccc(C)cc2)c(C)c1C(=O)C1=NOC2C(=O)N(c3ccc(F)cc3)C(=O)C12` (centres undefined), for which the melting point turned out to be 211 °C. As for `CN(N)c1ccc(Cl)cc1[N+](=O)[O-]`, the figure is 91 °C; as for `COC(=O)c1ccc2ncccc2c1`, 88 to 89 °C; as for `CCOC(=O)C(=O)C(=O)OCC`, -30 °C. In turn, `CCOC(=O)OCC` returned a melting point of -43 °C. Consider `O=C(Nc1ccccc1)C(=O)Nc1ccccc1`, for which the melting point is 254 °C.

In turn, `COc1ccccc1C1Nn2c(nnc2-c2ccc([N+](=O)[O-])cc2)S1` (centres undefined) showed a melting point of 152 °C. `N#Cc1ccc(-c2cccs2)s1` showed a melting point of 100 °C. As for `NC(CCc1ccccc1)C(=O)O` (single isomer, unassigned; (-)), the figure is 300 °C. The same measure for `CC(C)CC(O)C(=O)O` (racemic): 75 to 78 °C; for `O=C1c2ccccc2C(=O)c2cc(O)ccc21`: 306 °C; for `CCCCC(=O)N(Cc1ccc(-c2ccccc2-c2nnn[nH]2)cc1)C(C(=O)O)C(C)C` (centres undefined): 116 °C.

`O=C1c2cc([N+](=O)[O-])ccc2-c2ccc([N+](=O)[O-])cc21` had a melting point of 294 °C. As for `CN1CCN(Cc2ccc(C#N)cc2)CC1`, the figure is 69 to 71 °C. For `Nc1nc(Cl)c2nc[nH]c2n1`, the melting point stood at 300 °C.

Source of the values: a melting point compilation (Tetko et al.).
